{
  "source": "paper PMC8879702",
  "about": "“Discovery of Small Molecule Activators of Chemokine Receptor CXCR4 That Improve Diabetic Wound Healing” (International Journal of Molecular Sciences, 2022)",
  "format_in_all_cases": "cell-based",
  "key": {"CEM-CCRF cells": {"test_system": "CEM-CCRF cells", "assay": "96 wells transwell migration assay in CEM human lymphoblast cells", "excerpt": "Thus, to confirm CXCR4 functional activity, we evaluated UCUF-728 in a 96 wells transwell migration assay in CEM human lymphoblast cells. […] (Supplemental Figure S7). From the analog structure–activity relationship studies and characterization studies in the chemotaxis assay, cAMP signaling and CXCR4 binding assay, we identified UCUF-728 as a potent and functionally selective CXCR4 receptor modulator.\nCEM-CCRF (ATCC CCL-119) were suspended in RPMI 1640 (Corning; 10-040-CV) at 5.0 × 10^5 cells/mL and allowed to incubate in cell culture incubator at 37 °C with 5% CO2 for one hour. […] Following 1 h cell incubation and compound dispensing, 150 μL of RPMI 1640 supplemented with 2% Fetal Bovine Serum was added to each well of the compound receiver tray, and 50 μL of 5 × 10^5 cells/mL cell suspension in RPMI were added to each well of the top filter plate. Plates were reassembled and placed in a cell culture incubator at 37 °C with 5% CO2 for three hours. After incubation, Multi-Screen plate was disassembled and 100 μL of solution was collected from compound receiver tray and transferred to 96 well luminescent plate and an equal volume of ATPLite 1step luminescence reagent (Perkin Elmer, Waltham, MA, USA) was added to each well. Luminescence was measured using the CLARIOstar Plus (BMG LABTECH Inc., Cary, NC, USA)."}, "CXCR4 receptor [1]": {"target": "T1, CXCR4 receptor (Homo sapiens, UniProt P61073)", "T1 sequence (P61073 whole entry)": "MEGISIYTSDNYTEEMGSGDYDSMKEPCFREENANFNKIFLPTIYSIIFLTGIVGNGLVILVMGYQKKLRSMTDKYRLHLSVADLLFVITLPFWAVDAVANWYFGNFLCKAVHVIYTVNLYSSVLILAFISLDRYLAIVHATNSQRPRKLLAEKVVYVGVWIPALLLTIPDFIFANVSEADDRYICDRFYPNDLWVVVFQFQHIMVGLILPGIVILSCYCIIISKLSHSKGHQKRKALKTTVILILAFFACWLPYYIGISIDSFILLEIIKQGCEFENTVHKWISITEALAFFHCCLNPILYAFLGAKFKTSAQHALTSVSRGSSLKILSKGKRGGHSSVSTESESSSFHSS", "assay": "primary 1536 w β-arrestin recruitment assay (CXCR4-bla U2OS cells, SDF-1α from R&D systems)", "set-up": "host or cells: Tango CXCR4-bla U2OS cells", "procedure": "In our effort to identify CXCR4 activators from the NIH Molecular Library Small Molecule Repository (MLSMR), we developed a primary screening assay to measure β-arrestin recruitment to the activated G-protein coupled receptor (GPCR) by a Florescence Resonance Energy Transfer (FRET) in U2OS cells, overexpressing the CXCR4 receptor engineered with a β-lactamase (bla) reporter system. CXCR4-bla cells plated in 1536 w were stimulated in the presence of 10 µM compound concentration. […] Using this approach, we successfully screened the NIH MLSMR of 370,620 compounds (Figure 1A,B) and identified 303 hits (hit rate = 0.08%). […] These compounds were graded according to activity and structure, resulting in 86 compounds that met the criteria as potential CXCR4 agonists for further characterization (Figure 1B). The workflow for high-throughput screening and this study is illustrated in Figure 1B.\nChemical stability, synthetic tractability, solubility and complete dose response and potency criteria led to the prioritization of the 5-aryl-2-cyclopropyl oxazole scaffold, represented by primary hit Compound 2 (Table 1). The early structure–activity relationship was established around the 5-aryl-2-cyclopropyl oxazole core with commercially available analogs with diverse substituents in the sulfonanilide ring of the scaffold. […] Keeping the 2-OMe substituent constant, we screened a small set of electron withdrawing and electron rich substituents at the 5-position of the anilide ring (entries 16–19). […] The analytical data for UCUF-728 is shown in Supplemental Figures S1–S4."}, "CXCR4 receptor [2]": {"target": "T1, CXCR4 receptor", "assay": "384 w β-arrestin recruitment assay (Tango CXCR4-bla U2OS cells, PeproTech SDF-1α)", "set-up": "host or cells: Tango CXCR4-bla U2OS cells", "procedure": "Tango™ CXCR4-bla U2OS Cells were resuspended in assay media consisting of DMEM (Corning; Corning, NY, USA) supplemented with 1% dialyzed Fetal bovine serum, 0.1 mM MEM Non-essential amino acids solution, 25 mM HEPES solution (Corning; Corning, NY, USA), 1 mM Sodium Pyruvate and 100 IU penicillin, […] streptomycin sulfate (Corning; Corning, NY, USA) at a density of 3.0 × 10^5 cells/mL. Cells suspension was dispensed at 30 μL per well into assay plate and incubated overnight in a cell culture incubator at 37 °C with 5% CO2. Following overnight incubation, LiveBlazer FRET B/G Loading Kit working reagent was prepared according to supplier guidelines and 6 μL of solution was dispensed into each well. Assay plate was covered and incubated in a dark place for two hours and Fluorescence Intensity was measured using the BMG LABTECH CLARIOstar Plus (BMG LABTECH Inc., Cary, NC, USA) according to the LiveBlazer FRET B/G Loading Kit excitation and emission measurement guidelines."}},
  "data": [
    {"smiles": "COc1ccc(OC)c(NS(=O)(=O)c2ccc(-c3cnc(C4CC4)o3)cc2)c1", "note": "[Compound 19]", "values": [
      {"measurement": "induction of cell migration", "setting": "CEM-CCRF cells; compound in lower channel, 3 h", "result": "induced migration with a similar EC50 and Emax as the B-arrestin recruitment activity"},
      {"measurement": "effect on SDF-1α-mediated migration response", "setting": "CEM-CCRF cells; saturating concentrations of UCUF-728", "result": "potentiated"},
      {"measurement": "EC50", "setting": "CXCR4 receptor [1]", "result": 1100, "unit": "nM"},
      {"measurement": "Emax", "setting": "CXCR4 receptor [1]; U2OS", "result": 60, "unit": "%"},
      {"measurement": "EC50", "setting": "CXCR4 receptor [2]", "result": 500, "unit": "nM"},
      {"measurement": "Emax", "setting": "CXCR4 receptor [2]; U2OS", "result": 30, "unit": "%"}
    ]}
  ]
}
